Results: patent US11051515B2, “3-acyl-benzamides and their use as herbicides” (Bayer Aktiengesellschaft, priority 2017, dated 2021)

How the values were obtained:
VIOTR [1] = assay: Pre-emergence action against VIOTR; type: in vivo, Viola tricolor; conditions: Dosage 320 g/ha, pre-emergence
In short: (§1)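 Seeds sown in sandy loam in wood-fiber pots and covered with soil. Greenhouse growth; visual damage scored after 3 weeks versus untreated controls (100% = dead, 0% = like control).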

ECHCG [2] = assay: Pre-emergence action against ECHCG; type: in vivo, Echinochloa crus-galli; conditions: pre-emergence, dosage 320 g/ha, scored visually after 3 weeks vs untreated controls
In short: as §1

DIGSA [3] = assay: Post-emergence action against DIGSA; type: in vivo, Digitaria sanguinalis; conditions: dosage 80 g/ha, visual assessment about 3 weeks after treatment vs untreated controls
Procedure: Seeds of monocotyledonous and dicotyledonous weed and crop plants are laid out in sandy loam soil in wood-fiber pots, covered with soil and cultivated in a greenhouse under good growth conditions. 2 to 3 weeks after sowing, the test plants are treated at the one-leaf stage. The compounds of the invention, formulated in the form of wettable powders (WP) or as emulsion concentrates (EC), are then sprayed onto the green parts of the plants in the form of an aqueous suspension or emulsion at a water application rate equating to […], with addition of 0.2% wetting agent. After the test plants have been left to stand in the greenhouse under optimal growth conditions for about 3 weeks, the action of the preparations is assessed visually in comparison to untreated controls (herbicidal action in percent (%): 100% activity=the plants have died, 0% activity=like control plants). […] At the same time, inventive compounds leave Gramineae crops such as barley, wheat, rye, millet/Sorghum, corn or rice virtually undamaged when applied post-emergence, even at high active ingredient dosages. In addition, some substances are also harmless to dicotyledonous crops such as soya, cotton, oilseed rape, sugar beet or potatoes. Some of the compounds according to the invention have high selectivity and are therefore suitable for controlling unwanted vegetation in agricultural crops by the post-emergence method. The data of Tables B18 to B34 below illustrate, in an exemplary manner, the […] herbicidal action of the compounds according to the invention, the herbicidal activity being stated in percent.

AMARE [4] = assay: Post-emergence action against AMARE; type: in vivo, Amaranthus retroflexus; conditions: post-emergence, dosage 80 g/ha, visual assessment about 3 weeks after treatment vs untreated controls
In short: (§2)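 Post-emergence foliar spray on greenhouse plants at the one-leaf stage, using wettable-powder or emulsion-concentrate formulations in water (600 to […], plus 0.2% wetting agent). Damage scored by eye roughly 3 weeks later against untreated plants: 0% = like control, 100% = dead.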

STEME [5] = assay: Post-emergence action against STEME; type: in vivo, Stellaria media; conditions: post-emergence, dosage 80 g/ha
In short: as §2

STEME [6] = assay: Pre-emergence action against STEME; type: in vivo, Stellaria media; conditions: Dosage 320 g/ha, pre-emergence
In short: as §1

ABUTH [7] = assay: Pre-emergence action against ABUTH; type: in vivo, Abutilon theophrasti; conditions: pre-emergence, dosage 320 g/ha, scored visually after 3 weeks vs untreated controls
In short: as §1

AMARE [8] = assay: Pre-emergence action against AMARE; type: in vivo, Amaranthus retroflexus; conditions: pre-emergence, dosage 320 g/ha, scored visually after 3 weeks vs untreated controls
In short: as §1

ABUTH [9] = assay: Post-emergence action against ABUTH; type: in vivo, Abutilon theophrasti; conditions: post-emergence, dosage 80 g/ha, visual assessment about 3 weeks after treatment vs untreated controls
In short: as §2

PHBPU [10] = assay: Post-emergence action against PHBPU; type: in vivo, Pharbitis purpurea; conditions: post-emergence, dosage 80 g/ha
In short: as §2

MATIN [11] = assay: Pre-emergence action against MATIN; type: in vivo, Matricaria inodora; conditions: Dosage 320 g/ha, pre-emergence
In short: as §1

PHBPU [12] = assay: Pre-emergence action against PHBPU; type: in vivo, Pharbitis purpurea; conditions: Dosage 320 g/ha, pre-emergence
In short: as §1

VIOTR [13] = assay: Post-emergence action against VIOTR; type: in vivo, Viola tricolor; conditions: post-emergence, dosage 80 g/ha
In short: as §2

ECHCG [14] = assay: Post-emergence action against ECHCG; type: in vivo, Echinochloa crus-galli; conditions: post-emergence, dosage 80 g/ha, visual assessment about 3 weeks after treatment vs untreated controls
In short: as §2

SETVI [15] = assay: Pre-emergence action against SETVI; type: in vivo, Setaria viridis; conditions: pre-emergence, dosage 320 g/ha, scored visually after 3 weeks vs untreated controls
In short: as §1

MATIN [16] = assay: Post-emergence action against MATIN; type: in vivo, Matricaria inodora; conditions: post-emergence, dosage 80 g/ha, visual assessment about 3 weeks after treatment vs untreated controls
In short: as §2

SETVI [17] = assay: Post-emergence action against SETVI; type: in vivo, Setaria viridis; conditions: post-emergence, dosage 80 g/ha, visual assessment about 3 weeks after treatment vs untreated controls
In short: as §2

DIGSA [18] = assay: Pre-emergence action against DIGSA; type: in vivo, Digitaria sanguinalis; conditions: dosage 320 g/ha, scored visually after 3 weeks vs untreated controls
Text: Seeds of monocotyledonous and dicotyledonous weed plants and crop plants are laid out in sandy loam soil in wood-fiber pots and covered with soil. The compounds of the invention, formulated in the form of wettable powders (WP) or as emulsion concentrates (EC), are then applied to the surface of the covering soil in the form of an aqueous suspension or emulsion at a water application rate equating to […], with addition of 0.2% wetting agent. After the treatment, the pots are placed in a greenhouse and kept under good growth conditions for the trial plants. The damage to the test plants is scored visually after a test period of 3 weeks by comparison with untreated controls (herbicidal activity in percent (%): 100% activity=the plants have died, 0% activity=like control plants).

VERPE [19] = assay: Post-emergence action against VERPE; type: in vivo, Veronica persica; conditions: dosage 80 g/ha
In short: as §2

VERPE [20] = assay: Pre-emergence action against VERPE; type: in vivo, Veronica persica; conditions: Dosage 320 g/ha, pre-emergence
In short: as §1

SMILES	Pre-emergence action against VIOTR (VIOTR [1])	Pre-emergence action against ECHCG (herbicidal activity) (ECHCG [2])	Post-emergence action against DIGSA (herbicidal action in percent) (DIGSA [3])	Post-emergence action against AMARE (herbicidal action in percent) (AMARE [4])	Post-emergence action against STEME (STEME [5])	Pre-emergence action against STEME (STEME [6])	Pre-emergence action against ABUTH (herbicidal activity) (ABUTH [7])	Pre-emergence action against AMARE (herbicidal activity) (AMARE [8])	Post-emergence action against ABUTH (herbicidal action in percent) (ABUTH [9])	Post-emergence action against PHBPU (PHBPU [10])	Pre-emergence action against MATIN (MATIN [11])	Pre-emergence action against PHBPU (PHBPU [12])	Post-emergence action against VIOTR (VIOTR [13])	Post-emergence action against ECHCG (herbicidal action in percent) (ECHCG [14])	SETVI (Table B8, pre-emergence herbicidal activity) (SETVI [15])	Post-emergence action against MATIN (herbicidal action in percent) (MATIN [16])	Post-emergence action against SETVI (herbicidal action in percent) (SETVI [17])	Pre-emergence action against DIGSA (herbicidal activity) (DIGSA [18])	Post-emergence action against VERPE (VERPE [19])	Pre-emergence action against VERPE (VERPE [20])
CCn1nnnc1NC(=O)c1ccc(C(F)(F)F)c(C(=O)C(F)F)c1Cl [2-163]	100%	90%	100%	100%	100	100%	100%	100%	90%	90	100%	100%	100	90%	100%	90%	80%	90%	–	–
CCCn1nnnc1NC(=O)c1ccc(C(F)(F)F)c(C(=O)C2CCC2)c1SC [3-280]	100%	80%	80%	100%	100	100%	100%	100%	100%	80	90%	–	80	80%	100%	90%	–	100%	–	–
Cn1nnnc1NC(=O)c1ccc(C(F)(F)F)c(C(=O)C2CCCC2)c1Cl [1-154]	100%	100%	80%	90%	90	100%	100%	100%	90%	80	100%	–	80	–	80%	80%	–	100%	80	90%
